According to patent publication US20050137130A1, “Medical treatment” (priority 2001, published 2005):

How the values were obtained:
[1] = test system: activated human CD4+ T cells; experiment: Cytokine production (ELISA) by human CD4+ T cells stimulated with anti-CD3/CD28 beads and Delta1 beads, with added soluble protein; type: cell-based; conditions: increasing amounts of soluble protein in culture medium, 3 days
Protocol: M450 Streptavidin Dynabead™ magnetic beads (Dynal, USA) were coated with an anti-human-IgG4 biotinylated monoclonal antibody (BD Bioscience, 555879) by rotating them in the presence of the antibody for 30 minutes at room temperature. Beads were washed three times with PBS (1 ml). They were further incubated with hDelta1-hIgG4 (see Example 1 above) for 2 hours at room temperature and then washed three times with PBS (1 ml).
Human peripheral blood mononuclear cells (PBMC) were purified from blood using Ficoll-Paque separation medium (Pharmacia). Briefly, 28 ml of blood were overlaid on 21 ml of Ficoll-Paque separation medium and centrifuged at 18-20° C. for 40 minutes at 400 g. PBMC were recovered from the interface and washed 3 times before use for CD4+ T cell purification.
The CD4+ T cells were incubated in triplicates in a 96-well-plate (flat bottom) at 10^5 CD4/well/200 μl in RPMI medium containing 10% FCS, glutamine, penicillin, streptomycin and β2-mercaptoethanol.
Cytokine production was induced by stimulating the cells with anti-CD3/CD28 T cell expander beads from Dynal at a 1:1 ratio (bead/cell) in the presence of beads coated with hDelta1-IgG4Fc fusion protein (Example 1 above) at a 5:1 ratio (beads/cell). In some wells, increasing amounts of soluble hdelta1-IgG4Fc fusion protein were also added.
(§1) The supernatants were removed after 3 days of incubation at 37° C./5% CO2/humidified atmosphere and cytokine production was evaluated by ELISA using Pharmingen kits OptEIA Set human IL10 (catalog No. 555157), OptEIA Set human IL-5 (catalog No. 555202) for IL-10 and IL-5 respectively according to the manufacturer's instructions.
Human peripheral blood mononuclear cells (PBMC) were purified from blood using Ficoll-Paque separation medium (Pharmacia). […]
as §1, with “(Catalog” for “(catalog”, “instructions. […]” for “instructions.”

[2] = test system: Notch signalling in CHO-N2 (N27#11) cells expressing full length human Notch2; experiment: Antagonist assay of Notch signalling from Delta-coated Dynabeads (N27#11 luciferase reporter); type: cell-based; conditions: soluble protein, N27#11 reporter cells; for inhibition of Notch signalling from Delta beads compared to control: IgG4Fc as control
Protocol: Fc tagged Notch signalling modulators were immobilised on Streptavidin-Dynabeads (CELLection Biotin Binder Dynabeads [Cat. No. 115.21] at 4.0×10^8 beads/ml from Dynal (UK) Ltd; “beads”) in combination with biotinylated α-IgG-4 (clone JDC14 at 0.5 mg/ml from Pharmingen [Cat. No. 555879]) as follows:
A volume of Dynabeads beads corresponding to the total number required was removed from a stock of beads at 4.0×10^8 beads/ml. This was washed twice with 1 ml of PBS, and resuspended in a final volume of 100 μl of PBS containing a biotinylated anti-IgG4 antibody (clone JDC14 at 0.5 mg/ml from Pharmingen [Cat. No. 555879]) in a sterile Eppendorf tube and placed on shaker at room temperature for 30 minutes. The amount of biotinylated anti-IgG4 antibody needed to coat the beads was calculated relative to the fact that 1×10^7 streptavidin Dynabeads bind a maximum of 2 μg of antibody.
After coating the beads with antibody they were washed 3 times with 1 ml of PBS and finally resuspended in mDelta1-IgG4Fc protein diluted in PBS. Beads were coated in a solution of […] protein (usually 5 μg of mDelta1-IgG4Fc protein was added per 10^7 beads to be coated) and the ligand was allowed to bind to the beads in a 1 ml volume for 2 h at room temperature (or 4° C. overnight) on a rotary shaker to keep the beads in suspension. […]
To set up the bead antagonist assay, N27#11 cells (T80 flask) were removed using 0.02% EDTA solution (Sigma), spun down and resuspended in 10 ml DMEM plus 10%(HI) FCS plus glutamine plus P/S. Ten μl of cells were counted and the cell density was adjusted to 2.0×10^5 cells/ml with fresh DMEM plus 10%(HI) FCS plus glutamine plus P/S. The reporter cells were plated out at 100 μl per well of a 96-well plate (i.e. 2×10^4 cells per well) and were placed in an incubator to settle down for at least 30 minutes. […]
The following day 150 μl of supernatant was then removed from all the wells, 100 μl of SteadyGlo™ luciferase assay reagent (Promega) was added and the resulting mixture left at room temperature for 5 minutes. […] Luminescence was then read in a TopCount™ (Packard) counter. […]

| Substance | effect of added soluble protein on the IL-10 enhancement by bead-immobilised Delta1 [1] | inhibition of Notch signalling from Delta beads compared to control [2] | inhibition of Notch signalling from Delta beads, compared with hDelta1-IgG4Fc ([2]; Delta-coated Dynabeads) |
| --- | --- | --- | --- |
| hDelta1-IgG4Fc: fusion protein comprising the extracellular domain of human Delta1 fused to the Fc domain of human IgG4 (SEQ ID NO: 5) | inhibited | significant inhibition compared to control | – |
| hJagged1EGF1&2-IgG4Fc: human jagged1 sequence up to the end of EGF2 (leader, amino terminal, DSL, EGF1+2) fused to the Fc domain of human IgG4 (SEQ ID NO: 10) | inhibited | significant inhibition compared to control | substantially the same inhibition of Notch signalling |
